± gives the expanded uncertainty stated by the source.
Tests used:
[1] = Liquid, Ebulliometric method (Recirculating still)
[2] = refractive index (Na D-line) (dimensionless); settings: 298.15 K; 101.33 kPa; Liquid; Standard Abbe refractometry

Row | vapor or sublimation pressure ([1]; 337.68 K) | refractive index [2] | vapor or sublimation pressure ([1]; 355.5 K) | SMILES | vapor or sublimation pressure ([1]; 375.14 K)
1 | 101.3 ± 0.6 kPa | 1.3261 ± 0.0007 |  | CO [methanol] | 
2 |  | 1.375 ± 0.0007 | 101.3 ± 0.6 kPa | CC(C)O [propan-2-ol] | 

Row | SMILES | vapor or sublimation pressure ([1]; 337.68 K) | refractive index [2] | vapor or sublimation pressure ([1]; 355.5 K) | vapor or sublimation pressure ([1]; 375.14 K)
3 | CCC(C)(C)O [2-methylbutan-2-ol] |  | 1.4018 ± 0.0007 |  | 101.3 ± 0.6 kPa
